Assay results from patent US9340768B2, “Transformation of glycerol and cellulosic materials into high energy fuels” (THE TEXAS A&M UNIVERSITY SYSTEM, priority 2008, dated 2016).
Entries after “also recorded” stand apart in the source; their conditions may differ.

Tests used:
Type in all cases: cell-based, Debaryomyces hansenii
D. hansenii [1] = assay: Growth and oleagenicity of D. hansenii on pure carbon sources (Nile red plate staining); conditions: for Oleagenicity: carbon source at 30 g/L, Nile Red fluorescence; for Growth: carbon source at 30 g/L in minimal media
Description: D. hansenii (Dh) and S. cerevisiae (Sc) grown on minimal media containing no carbon source, 30 g/L of glucose, arabinose, xylose, carboxymethylcellulose or cellobiose. D. hansenii grew well on media containing glucose, arabinose and cellobiose. Lipid accumulation was indicated by Nile Red fluorescence in D. hansenii grown on glucose but not on cellobiose.
Culture media and cultivation conditions. For liquid culture, single colony of D. hansenii or S. cerevisiae were pre-cultured in 2 mL YPD or other desired media (see below) and incubated at 30° C. for 24 hr. Cells were counted using a hemacytometer and spun down at 3000 rpm for 15 minutes. Cells at a concentration of 1×10^6/mL were used to inoculate the desired media with 1% of the total volume. Medium A with limited nitrogen source (glucose 30 g/L, yeast extract 1.5 g/L, NH4Cl 0.1 g/L, KH2PO4 7.0 g/L, Na2HPO4 1.983 g/L, MgSO4.7H2O 1.5 g/L, FeCl3.6H2O 0.08 g/L, ZnSO4.7H2O 0.01 g/L, CaCl2.2H2O 0.1 g/L, MnSO4.H2O 0.07 mg/L, CuSO4.5H2O 0.1 mg/L, Co(NO3)2.6H2O 0.1 mg/L, pH 5.5; see Kimura et al., 2004) was used to support the growth of D. hansenii and induce cellular lipid accumulation. Medium A with sufficient nitrogen supply (NH4Cl 5 g/L) was used to support growth without the induction of lipid accumulation. To test the growth of D. hansenii on carbon sources other than glucose, glucose was dropped out from medium A and replaced with desired carbon sources at the same concentration except for glycerol, which was at 10% or 20% (v/v). […] For making media containing sorghum juice, raw juice was filter sterilized and added in the media at various concentrations of 5%, 10%, 25%, and 50% (v/v). Crude glycerol (Future Fuel Chemical Company, Arkansas, USA) contained 6% water, 88% glycerol, 2.564% ash by weight.
Nile red plate staining assay. Nile red (9-diethylamino-5H-benzo[α]phenoxazine-5-one) obtained from Sigma-Aldrich (Missouri, USA) was dissolved in Dimethyl sulfoxide (DMSO) at a concentration of 0.5 mg/mL and supplemented in medium A at a final concentration of 0.5 μg/mL. For direct observation of cellular lipid accumulation, D. hansenii grown on solid medium A with Nile red were observed using a UV light source (312 nm) as described (Spiekemann et al., 1999).

D. hansenii [2] = assay: OmniLog Phenotype Microarray, osmolytes (PM9); conditions: 30° C., OMNILOG PM
Description: PM assays. Inoculums for PM panels were prepared according to the manufacturer's protocols with modifications; Procedures for S. cerevisiae and other Fungi version 8 Feb. 2006 (Biolog) was used to prepare inoculums for PM01, PM02, and PM09, while version 29 Apr. 2008 (Biolog) was used for PM10. In brief, D. hansenii were streaked onto defined Medium A (Table 6) and cultivated at 30° C. for 48 hours. Cells were redistributed onto fresh agar using a sterile swab and incubated for an additional 4 hours at 30° C. to ensure active growth and avoid late-growth clumping (Oliver R Homann, Houjian Cai, 2005). (Kimura et al., 2004)
Cells were then transferred into the appropriate PM inoculation fluid (Table 7) and re-suspended to 62% transmittance (approximately 200 cells per 100 μL assay). PM1 and PM2 measure carbon source utilization and/or sensitivity; as such, the inoculation fluid lacks a defined carbon source (e.g., glycerol or glucose). In contrast, the inoculating fluids for PM9 (osmolytes) and PM10 (pH) required the inclusion of a carbon source (Table 7); in this case glucose was supplemented to 100 mM.
D. hansenii-containing inoculation fluid was inoculated into PM panels and incubated at 30° C. for 6.5 days. Color intensity for each well was measured every 15 minutes. Exemplary time course (kinetic) results (means) from representative PM assays are plotted.
In order to simplify the comparison of individual assay conditions, the full time-course kinetic plots were converted into a single unitless numerical value, which is weighted to more greatly value latter time points (e.g., endpoints), as described by Homann et al. (2005). Signal value=[(average signal+maximum signal)/2−average signal over first 2 h]; Represent the full time course by a single number; Weight the value towards latter time points; Subtract the “baseline” signal level for each well (Oliver R Homann, 2005) and Replicate PM assay runs were conducted, and the average of the signal values was used.

D. hansenii [3] = assay: Microscopic quantification of secreted (extracellular) lipid bodies, Nile red; conditions: 100 nM wortmannin, 144 hr post inoculation; untreated control more than 80 per 100 cells
Description: (§1) Fluorescent microscopy. For Nile red stained cells or cultures, microscopic photographs were taken with an Olympus BX51 microscope (Olympus America, New York, USA) equipped with an Olympus DP70 camera using a 530-550 nm excitation filter, a 570 nm diachronic mirror and a 590 nm emission filter with a 60× objective lens. For microscopic quantification of secreted lipid bodies, 50 μL of the cell suspension in media A containing 0.2% agarose and Nile red, with or without the addition of 100 nM wortmannin, were inoculated in triplicate in microscopic frames that allow the agarose-based matrix to be sealed between two pieces of cover glasses. Slides were incubated in 90% moisture at 30° C. At 0, 48, 72, 96, 120, 144 hr post inoculation, the number of the cells and extracellular lipid bodies (stained with Nile red) were quantified. In parallel, the cells were stained with FUN1 (Invitrogen) for viability determination.

D. hansenii [4] = assay: Cell viability by FUN1 stain and microscopic quantification; conditions: 100 nM wortmannin, FUN1 stain
Description: as §1

## O=C[C@H](O)[C@@H](O)[C@H](O)CO [Xylose]
D. hansenii [1]
  Oleagenicity: No

## [Cl-].[Na+] [NaCl]
D. hansenii [2]
  level of salt solution tolerated without severe compromise in growth: up to 6.5%

## COC[C@H]1OC(=O)c2coc3c2[C@@]1(C)C1=C(C3=O)[C@@H]2CCC(=O)[C@@]2(C)C[C@H]1OC(C)=O [wortmannin]
D. hansenii [3]
  lipid bodies released from D. hansenii cells: lower than 10 per 100 cells
D. hansenii [4]
  cell viability: remained unaffected; also recorded: not affected

## [Cl-].[K+] [KCl]
D. hansenii [2]
  level of salt solution tolerated without severe compromise in growth: ≤ 6%

## O=C[C@@H](O)[C@H](O)[C@H](O)CO [Arabinose]
D. hansenii [1]
  Growth: grew well
  Oleagenicity: No

## O=C[C@H](O)[C@@H](O)[C@H](O[C@@H]1O[C@H](CO)[C@@H](O)[C@H](O)[C@H]1O)[C@H](O)CO [Cellobiose]
D. hansenii [1]
  Growth: grew well
  Oleagenicity: No

## O=S(=O)([O-])[O-].[Na+].[Na+] [Na2SO4]
D. hansenii [2]
  level of salt solution tolerated without severe compromise in growth: ≤ 5%
